# Test system: H37Rv S315T (KatG mutant)
# Format: cell-based, Mycobacterium tuberculosis
smiles,measurement,value
"NNC(=O)c1ccncc1 [INH, Isoniazid]",dependence of activity on KatG,dependent upon KatG

# — patent US9579381B2 (priority 2012, dated 2017)
